US6693216B2, “Calcium double salts” (Nutrinova Nutrition Specialties & Food Ingredients GmbH, priority 2000, dated 2004)
Where two headings read alike, the source gives them in different places.

Tests used:
[1] = sealed
Description: Salts prepared as in example 1 were dried, stored under the specified conditions without the addition of other substances and checked at regular intervals visually for discoloration: […]

Bacilli = conditions: Part I, 1 g/l in apple juice pH 4.5, 25° C.
Acetic acid bacteria = conditions: Part I, 1 g/l in apple juice pH 4.5, 25° C.
Gram-positive bacteria = conditions: Part I, 1 g/l in apple juice pH 4.5, 25° C.
Gram-negative bacteria = conditions: Part I, 1 g/l in apple juice pH 4.5, 25° C.
Thermophilic bacilli = conditions: Part I, 1 g/l in apple juice pH 4.5, 25° C.
Yeasts = conditions: Part I, 1 g/l in apple juice pH 4.5, 25° C.
Lactic acid bacteria = conditions: Part I, 1 g/l in apple juice pH 4.5, 25° C.
Clostridia = conditions: Part I, 1 g/l in apple juice pH 4.5, 25° C.
Molds I = conditions: Part I, 1 g/l in apple juice pH 4.5, 25° C.

Q: Which “Time after yellow-brown discoloration of a 1% strength aqueous solution” value (“Time … of a 1% strength aqueous solution” for short) ([1]; dark at 7° C.) does the source give for `CCC(=O)[O-].O=C([O-])c1ccccc1.[Ca+2]` here?
A: 12 months

Q: What about the “Time after yellow-brown discoloration of the powder” value (shortened to “Time … of the powder”) ([1]; dark at 7° C.) of the same compound?
A: 12 months

Q: And the “Time … of a 1% strength aqueous solution” value ([1]; dark at 25° C.)?
A: 8 months

Q: What about the “Time … of the powder” value ([1]; dark at 25° C.) of the same compound?
A: 7 months

Q: What about the “Time … of a 1% strength aqueous solution” value ([1]; under sunlight at 7° C.) of the same compound?
A: 12 months

Q: And the “Time … of the powder” value ([1]; under sunlight at 7° C.)?
A: 12 months

Q: And the “Time … of a 1% strength aqueous solution” value ([1]; under sunlight at 25° C.)?
A: 7-8 months

Q: And the “Time … of the powder” value ([1]; under sunlight at 25° C.)?
A: 8 months

Q: With `C/C=C/C=C/C(=O)[O-].[K+]` [Potassium Sorbate] as the compound, how does the “Number of surviving microorganisms per g of contaminated sample, Bacilli” value (“Number … per g of contaminated sample, Bacilli” below) (Bacilli; 1 day after inoculation (1.5 × 10^4)) read?
A: 1.4 × 10^3 CFU/g

Q: And the “Number … per g of contaminated sample, Bacilli” value (Bacilli; 3 days after inoculation (1.5 × 10^4))?
A: (<100) CFU/g

Q: And the “Number … per g of contaminated sample, Bacilli” value (Bacilli; 7 days after inoculation (1.5 × 10^4))?
A: 1.4 × 10^3 CFU/g

Q: And the “Number … per g of contaminated sample, Bacilli” value (Bacilli; 14 days after inoculation (1.5 × 10^4))?
A: 1.3 × 10^3 CFU/g

Q: And the “Number of surviving microorganisms per g of contaminated sample, Acetic acid bacteria” value (Acetic acid bacteria; 1 day after inoculation (2.3 × 10^4))?
A: 1.7 × 10^4 CFU/g

Q: And the “Number of surviving microorganisms per g of contaminated sample, Acetic acid bacteria” value (Acetic acid bacteria; 3 days after inoculation (2.3 × 10^4))?
A: 4.3 × 10^5 CFU/g

Q: And the “Number of surviving microorganisms per g of contaminated sample, Acetic acid bacteria” value (Acetic acid bacteria; 7 days after inoculation (2.3 × 10^4))?
A: 1.3 × 10^3 CFU/g

Q: What about the “Number of surviving microorganisms per g of contaminated sample, Acetic acid bacteria” value (Acetic acid bacteria; 14 days after inoculation (2.3 × 10^4)) of the same compound?
A: 2.7 × 10^5 CFU/g

Q: What about the “Number of surviving microorganisms per g of contaminated sample, Gram-positive bacteria” value (Gram-positive bacteria; 1 day after inoculation (2.6 × 10^4)) of the same compound?
A: 5.5 × 10^4 CFU/g

Q: What about the “Number of surviving microorganisms per g of contaminated sample, Gram-positive bacteria” value (Gram-positive bacteria; 3 days after inoculation (2.6 × 10^4)) of the same compound?
A: 7.0 × 10^3 CFU/g

Q: What about the “Number of surviving microorganisms per g of contaminated sample, Gram-positive bacteria” value (Gram-positive bacteria; 7 days after inoculation (2.6 × 10^4)) of the same compound?
A: <100 CFU/g

Q: What about the “Number of surviving microorganisms per g of contaminated sample, Gram-positive bacteria” value (Gram-positive bacteria; 14 days after inoculation (2.6 × 10^4)) of the same compound?
A: <10 CFU/g

Q: What about the “Number of surviving microorganisms per g of contaminated sample, Gram-negative bacteria” value (Gram-negative bacteria; 1 day after inoculation (2.4 × 10^4)) of the same compound?
A: 2.9 × 10^4 CFU/g

Q: What about the “Number of surviving microorganisms per g of contaminated sample, Gram-negative bacteria” value (Gram-negative bacteria; 3 days after inoculation (2.4 × 10^4)) of the same compound?
A: 1.5 × 10^3 CFU/g

Q: What about the “Number of surviving microorganisms per g of contaminated sample, Gram-negative bacteria” value (Gram-negative bacteria; 7 days after inoculation (2.4 × 10^4)) of the same compound?
A: 350 CFU/g

Q: And the “Number of surviving microorganisms per g of contaminated sample, Gram-negative bacteria” value (Gram-negative bacteria; 14 days after inoculation (2.4 × 10^4))?
A: <10 CFU/g

Q: And the “Number of surviving microorganisms per g of contaminated sample, Thermophilic bacilli” value (Thermophilic bacilli; 1 day after inoculation (1.3 × 10^4))?
A: 1.6 × 10^3 CFU/g

Q: And the “Number of surviving microorganisms per g of contaminated sample, Thermophilic bacilli” value (Thermophilic bacilli; 3 days after inoculation (1.3 × 10^4))?
A: 900 CFU/g

Q: And the “Number of surviving microorganisms per g of contaminated sample, Thermophilic bacilli” value (Thermophilic bacilli; 7 days after inoculation (1.3 × 10^4))?
A: <100 CFU/g

Q: And the “Number of surviving microorganisms per g of contaminated sample, Thermophilic bacilli” value (Thermophilic bacilli; 14 days after inoculation (1.3 × 10^4))?
A: <10 CFU/g

Q: And the “Number of surviving microorganisms per g of contaminated sample, Yeasts” value (shortened to “Number … per g of contaminated sample, Yeasts”) (Yeasts; 1 day after inoculation (2.5 × 10^4))?
A: 2.7 × 10^5 CFU/g

Q: What about the “Number … per g of contaminated sample, Yeasts” value (Yeasts; 3 days after inoculation (2.5 × 10^4)) of the same compound?
A: 1.1 × 10^4 CFU/g

Q: What about the “Number … per g of contaminated sample, Yeasts” value (Yeasts; 7 days after inoculation (2.5 × 10^4)) of the same compound?
A: 6.0 × 10^2 CFU/g

Q: What about the “Number … per g of contaminated sample, Yeasts” value (Yeasts; 14 days after inoculation (2.5 × 10^4)) of the same compound?
A: <10 CFU/g

Q: And the “Number of surviving microorganisms per g of contaminated sample, Lactic acid bacteria” value (Lactic acid bacteria; 1 day after inoculation (1.9 × 10^4))?
A: 1.3 × 10^4 CFU/g

Q: And the “Number of surviving microorganisms per g of contaminated sample, Lactic acid bacteria” value (Lactic acid bacteria; 3 days after inoculation (1.9 × 10^4))?
A: 1.2 × 10^6 CFU/g

Q: What about the “Number of surviving microorganisms per g of contaminated sample, Lactic acid bacteria” value (Lactic acid bacteria; 7 days after inoculation (1.9 × 10^4)) of the same compound?
A: 1.7 × 10^6 CFU/g

Q: What about the “Number of surviving microorganisms per g of contaminated sample, Lactic acid bacteria” value (Lactic acid bacteria; 14 days after inoculation (1.9 × 10^4)) of the same compound?
A: 1.2 × 10^7 CFU/g

Q: What about the “Number of surviving microorganisms per g of contaminated sample, Clostridia” value (Clostridia; 1 day after inoculation (1.4 × 10^4)) of the same compound?
A: 1.1 × 10^3 CFU/g

Q: And the “Number of surviving microorganisms per g of contaminated sample, Clostridia” value (Clostridia; 3 days after inoculation (1.4 × 10^4))?
A: 450 CFU/g

Q: And the “Number of surviving microorganisms per g of contaminated sample, Clostridia” value (Clostridia; 7 days after inoculation (1.4 × 10^4))?
A: 160 CFU/g

Q: And the “Number of surviving microorganisms per g of contaminated sample, Clostridia” value (Clostridia; 14 days after inoculation (1.4 × 10^4))?
A: 250 CFU/g

Q: What about the “Number of surviving microorganisms per g of contaminated sample, Molds I” value (“Number … per g of contaminated sample, Molds I” below) (Molds I; 1 day after inoculation (1.7 × 10^4)) of the same compound?
A: 5.0 × 10^4 CFU/g

Q: What about the “Number … per g of contaminated sample, Molds I” value (Molds I; 3 days after inoculation (1.7 × 10^4)) of the same compound?
A: <100 CFU/g

Q: And the “Number … per g of contaminated sample, Molds I” value (Molds I; 7 days after inoculation (1.7 × 10^4))?
A: <10 CFU/g

Q: And the “Number … per g of contaminated sample, Molds I” value (Molds I; 14 days after inoculation (1.7 × 10^4))?
A: <10 CFU/g
